# Target: MerE (Shigella flexneri, UniProt Q7AKA4)
# Conditions: 5 uM compound, LB broth with 100 ug/mL chloramphenicol and 100 uM EDTA, 37 °C
# MerE, sequence (Q7AKA4 whole entry): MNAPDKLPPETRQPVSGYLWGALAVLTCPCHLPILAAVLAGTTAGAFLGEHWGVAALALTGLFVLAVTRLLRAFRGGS
structure (smiles),measurement,value
[CH3][Hg][Cl] [CH3Hg(I)],"uptake of 14C-labelled compound by E. coli XL1-Blue cells, filtration and scinti",cells with pE4 took up significantly more CH3Hg(I) than control cells
